# Measured values: patent publication US4882349A, “Pyrrolacetic amides having antiinflammatory activity” (priority 1982, dated 1989)
# Read-outs that look alike come from different tables or passages of the source.
# Legend:
# [1] = tested on: Mice; details: mouse, in vivo
# [2] = tested on: Rats; details: rat, in vivo
# [3] = tested on: brewers' yeast-induced hyperthermia; test: antipyretic activity, brewers' yeast-induced hyperthermia; type: in vivo, albino male Wistar rats
# Experimental: The animals were caged under the same conditions as those described in the preceding tests. Five hours following […], determined by a rectal probe connected to a YSI thermometer (73 ATP model, Yellow Springs Instrument Company) were selected for the experiment. The animals were then randomized into groups of 10 and the compounds under examination and the vehicle were administered via the oral and parenteral routes testing each dose in two groups. Body temperature was determined at one, two and three hours after administration of the substances. […]
# [4] = tested on: carrageenin-induced oedema; test: carrageenin-induced oedema test (anti-inflammatory activity); type: in vivo, albino male Wistar rats
# Experimental: This effect was evaluated by means of an experimental model reproducing acute inflammation: for this purpose the carrageenin- induced oedema test was employed following the method described by C.
# Albino male Wistar rats weighing 140-160 g were caged for 10 days at 22±1° C. and given a balanced diet and water ad libitum. Eighteen hours before the experiment the animals were randomized into groups of ten and fasted but with free access to water. Each dose was tested in three groups of rats. Each compound was given either orally, by gavage, or parenterally--intraperitoneal injection--administering as follows:
# controls: 0.5% carboxymethylcellulose suspension in physiological saline, 10 ml/kg
# treated: suspension of the compounds to be tested in the same vehicle and at the same volume (10 ml/kg) used for the controls at the doses specified below.
# One hour after administration of the compounds and vehicle, in order to provoke the oedema for determining the protective effect of the substances under examination, each rat received, by subcutaneous injection into the plantar surface of the left paw, 0.1 ml of 1% sterile carrageenin suspension.
# [5] = tested on: gastric lesions; type: in vivo, male Wistar rats; details: 4 consecutive days; for mean severity: scale 0 (no lesion) to 5 (perforations)
# Experimental: Male Wistar rats weighing 180 g were randomized into groups of 10. Three doses of each compound were administered. One group received the vehicle alone (10 ml/kg b.w.). Each dose was given orally for four days consecutively and the rats were sacrificed on the fifth day for necropsy. The ulcerogenic effect was evaluated by the following scale:
# (1) each haemorrhagic point at least 1 mm in diameter was scored as 1 lesion,
# (2) haemorrhagic points less than 1 mm in diameter were scored in the following manner:
# (c) 20 to 29=three lesions
# By means of this scale it was possible to obtain the gastric damage index:
# I=mean no. of lesions+mean of severity+% incidence/10
# [6] = tested on: phenyl-p-quinone-induced writhing (abdominal contractions); test: phenylquinone-induced writhing test (analgesic activity), compound given 30 min before phenyl-p-quinone; type: in vivo, male Wistar rats
# Experimental: Male Wistar rats weighing 110±5 g were caged for 10 days at 22±1° C. and given a balanced diet with free access to water. Twenty-four hours before the experiment the animals were randomized into groups of 10 and fasted for 14 hours but with free access to water. Each dose was tested in 3 groups of rats. Thirty minutes following administration either orally or parenterally of the products to be tested and the vehicle alone (0.5% carboxymethyl-cellulose in physiological saline) in the control animals, each rat was given 2 ml of a 5% absolute ethanol aqueous solution containing 0.36% of phenyl-p-quinone (Sigma Chemical Company) in order to provoke writhings. Fifteen minutes after administration of phenyl-p-quinone the number of contractions were counted for 20 minutes. The inhibiting effect of the compounds under examination on the abdominal contractions induced by phenyl-p-quinone was calculated by the following formula: % protection= [formula]
# Table V lists the tested compounds, doses, routes of administration and their efficacy expressed as percentage of protection, taking into account that phenyl-p-quinone was administered thirty minutes after the compounds.
smiles,measurement,setting,value
"Cc1ccc(C(=O)c2ccc(CC(=O)NNCC(=O)N3CCN(C)CC3)n2C)cc1 [Compound 1-o, 1-methyl-5-p-toluoylpyrrole-2-acetic acid-2 [N-(4-methyl-1-piperazinyl)acetamide] hydrazide]",LD50,[1]; ip,590 mg/kg
same,LD50,[1]; po,910 mg/kg
same,LD50,[2]; ip,700 mg/kg
same,LD50,[2]; po,978 mg/kg
same,% Temperature decrease,"[3]; 50 mg/Kg i.p., 1 h",13.0%
same,% Temperature decrease,"[3]; 50 mg/Kg i.p., 2 h",27.5%
same,% Temperature decrease,"[3]; 50 mg/Kg i.p., 3 h",39.6%
same,% Temperature decrease,"[3]; 50 mg/Kg per os, 1 h",12.0%
same,% Temperature decrease,"[3]; 50 mg/Kg per os, 2 h",23.1%
same,% Temperature decrease,"[3]; 50 mg/Kg per os, 3 h",35.2%
same,% Temperature decrease,"[3]; 75 mg/Kg i.p., 1 h",18.0%
same,% Temperature decrease,"[3]; 75 mg/Kg i.p., 2 h",27.0%
same,% Temperature decrease,"[3]; 75 mg/Kg i.p., 3 h",49.6%
same,% Temperature decrease,"[3]; 75 mg/Kg per os, 1 h",16.0%
same,% Temperature decrease,"[3]; 75 mg/Kg per os, 2 h",25.2%
same,% Temperature decrease,"[3]; 75 mg/Kg per os, 3 h",40.2%
same,% Temperature decrease,"[3]; 100 mg/Kg i.p., 1 h",30.1%
same,% Temperature decrease,"[3]; 100 mg/Kg i.p., 2 h",45.0%
same,% Temperature decrease,"[3]; 100 mg/Kg i.p., 3 h",62.1%
same,% Temperature decrease,"[3]; 100 mg/Kg per os, 1 h",29.1%
same,% Temperature decrease,"[3]; 100 mg/Kg per os, 2 h",33.7%
same,% Temperature decrease,"[3]; 100 mg/Kg per os, 3 h",59.0%
same,oedema % inhibition,"[4]; 25 mg/Kg per os, 2 h",37.1%
same,oedema % inhibition,"[4]; 25 mg/Kg per os, 4 h",42.0%
same,oedema % inhibition,"[4]; 25 mg/Kg per os, 6 h",44.0%
same,oedema % inhibition,"[4]; 25 mg/Kg per os, 24 h",12.1%
same,oedema % inhibition,"[4]; 25 mg/Kg per os, 48 h",0.0%
same,oedema % inhibition,"[4]; 25 mg/Kg per os, 72 h",0.0%
same,oedema % inhibition,"[4]; 25 mg/Kg, Table IV (route not given), 2 h",39.0%
same,oedema % inhibition,"[4]; 25 mg/Kg, Table IV (route not given), 4 h",37.1%
same,oedema % inhibition,"[4]; 25 mg/Kg, Table IV (route not given), 6 h",36.0%
same,oedema % inhibition,"[4]; 25 mg/Kg, Table IV (route not given), 24 h",11.1%
same,oedema % inhibition,"[4]; 25 mg/Kg, Table IV (route not given), 48 h",0.0%
same,oedema % inhibition,"[4]; 25 mg/Kg, Table IV (route not given), 72 h",0.0%
same,oedema % inhibition,"[4]; 50 mg/Kg per os, 2 h",49.2%
same,oedema % inhibition,"[4]; 50 mg/Kg per os, 4 h",50.1%
same,oedema % inhibition,"[4]; 50 mg/Kg per os, 6 h",50.0%
same,oedema % inhibition,"[4]; 50 mg/Kg per os, 24 h",22.1%
same,oedema % inhibition,"[4]; 50 mg/Kg per os, 48 h",4.5%
same,oedema % inhibition,"[4]; 50 mg/Kg per os, 72 h",0.0%
same,oedema % inhibition,"[4]; 50 mg/Kg, Table IV (route not given), 2 h",52.1%
same,oedema % inhibition,"[4]; 50 mg/Kg, Table IV (route not given), 4 h",55.0%
same,oedema % inhibition,"[4]; 50 mg/Kg, Table IV (route not given), 6 h",43.0%
same,oedema % inhibition,"[4]; 50 mg/Kg, Table IV (route not given), 24 h",17.9%
same,oedema % inhibition,"[4]; 50 mg/Kg, Table IV (route not given), 48 h",0.0%
same,oedema % inhibition,"[4]; 50 mg/Kg, Table IV (route not given), 72 h",0.0%
same,oedema % inhibition,"[4]; 100 mg/Kg per os, 2 h",70.1%
same,oedema % inhibition,"[4]; 100 mg/Kg per os, 4 h",73.4%
same,oedema % inhibition,"[4]; 100 mg/Kg per os, 6 h",77.5%
same,oedema % inhibition,"[4]; 100 mg/Kg per os, 24 h",33.5%
same,oedema % inhibition,"[4]; 100 mg/Kg per os, 48 h",8.6%
same,oedema % inhibition,"[4]; 100 mg/Kg per os, 72 h",0.0%
same,oedema % inhibition,"[4]; 100 mg/Kg, Table IV (route not given), 2 h",79.1%
same,oedema % inhibition,"[4]; 100 mg/Kg, Table IV (route not given), 4 h",78.0%
same,oedema % inhibition,"[4]; 100 mg/Kg, Table IV (route not given), 6 h",77.3%
same,oedema % inhibition,"[4]; 100 mg/Kg, Table IV (route not given), 24 h",24.1%
same,oedema % inhibition,"[4]; 100 mg/Kg, Table IV (route not given), 48 h",0.0%
same,oedema % inhibition,"[4]; 100 mg/Kg, Table IV (route not given), 72 h",0.0%
same,mean no. of lesions,[5]; 50 mg/Kg orally,1
same,gastric damage index,"[5]; 50 mg/Kg orally, I=mean no. of lesions+mean of severity+% incidence/10",9
same,mean severity,[5]; 50 mg/Kg orally,1
same,mean no. of lesions,[5]; 100 mg/Kg orally,2
same,mean severity,[5]; 100 mg/Kg orally,1
same,mean no. of lesions,[5]; 200 mg/Kg orally,2
same,% Protection,[6]; 5 mg/Kg i.p.,35.1%
same,% Protection,[6]; 5 mg/Kg per os,29.3%
same,% Protection,[6]; 10 mg/Kg i.p.,63.9%
same,% Protection,[6]; 10 mg/Kg per os,60.4%
same,% Protection,[6]; 20 mg/Kg i.p.,87.0%
same,% Protection,[6]; 20 mg/Kg per os,86.2%
